Columns and labels:
anti-MG-KLH IgG [1] = test: Absorption spectra of dye mixed with IgG fraction; format: binding, guinea-pig
Procedure: Concentrations of the aforementioned IgG fraction and MG solution were adjusted by dilution such that the protein concentration as described above and MG concentration would finally be 2 μM and 4 μM, respectively. Further, employing γ globulin of a guinea-pig as the control against anti-MG-KLH IgG (i.e., blank IgG), the absorption spectrum of a mixture of the IgG fraction and the MG solution was measured (See FIG. 3).

anti-MG-KLH IgG [2] = test: Differential fluorescence spectra of dye mixed with IgG fraction; format: binding, guinea-pig; details: for fluorescent ability upon mixing with anti-MG-KLH IgG: differential spectrum versus blank IgG
Description: Since the differential spectra can remove problematic noises in the fluorescence analysis such as the fluorescence of a cell itself and Raman scattering of a solvent, it becomes possible to obtain the fluorescence spectrum purely pertaining to a sample.

[3] = tested on: IgG fraction derived from Guinea-pig 1; test: Fluorescence of Malachite Green dilutions mixed with the IgG fraction; format: binding; details: IgG fraction 0.2 μM, excitation 617 nm
Procedure: A series of dilutions of Malachite Green in PBS solutions are prepared by adding to the solutions, the IgG fraction according to the invention which has been derived from Guinea-pig 1 in certain amounts (with the final concentration being 0.2 μM), and by adjusting concentrations of the dye within the range of 0-12 nM.
Fluorescence of these dilutions is measured with a Hitachi Model 850 fluorescence spectrophotometer under the following conditions: in a quartz cell of optical path length of 1.0 cm at the excitation side; an excitation wavelength of 617 nm; an emission wavelength of 650 nm; a band-pass width of 5 nm at both excitation and emission sides; High gain of a photomultiplier; a time constant of 1.5 sec; and a fluorescence integration time of 30 sec. Thus, a concentration-fluorescence intensity curve is prepared (See FIG. 5).
The fluorescence intensity is expressed as output values (i.e., arbitrary, relative units) of the fluorescence spectrophotometer.

[4] = Absorbance of Malachite Green dilutions in PBS at 617 nm; format: physicochemical; details: 1 cm path
Procedure: Malachite Green is dissolved in a phosphate-buffered saline (hereinafter referred to as “PBS”) to prepare a series of dilutions in the concentration range of 4-4,000 nM.
Absorbance at a wavelength of 617 nm in these dilutions is measured with a Hitachi Model 557 two wavelength spectrophotometer using a quartz cell with a 1 cm optical path length and PBS as the reference (See Table 1), and a concentration—absorbance curve is prepared (See FIG. 6).

SMILES	change of absorption intensity in anti-MG-KLH IgG mixed solution (anti-MG-KLH IgG [1])	shift of absorption spectrum in anti-MG-KLH IgG mixed solution (anti-MG-KLH IgG [1])	fluorescent ability upon mixing with anti-MG-KLH IgG (anti-MG-KLH IgG [2])	shift of wavelength of absorption maximum to longer wavelength relative to dye alone (anti-MG-KLH IgG [1]; IgG 2 μM, MG 4 μM)	increase of fluorescence quantum yield (anti-MG-KLH IgG [2]; by the treatment according to the invention)	Fluorescence intensity (650 nm) ([3]; 0.04 nM dye)	Fluorescence intensity (650 nm) ([3]; 0.12 nM dye)	Fluorescence intensity (650 nm) ([3]; 0.4 nM dye)	Fluorescence intensity (650 nm) ([3]; 1.2 nM dye)	Fluorescence intensity (650 nm) ([3]; 4 nM dye)	Fluorescence intensity (650 nm) ([3]; 12 nM dye)	Absorbance (617 nm) ([4]; 4 nM in PBS)	Absorbance (617 nm) ([4]; 12 nM in PBS)	Absorbance (617 nm) ([4]; 40 nM in PBS)	Absorbance (617 nm) ([4]; 120 nM in PBS)	Absorbance (617 nm) ([4]; 400 nM in PBS)	Absorbance (617 nm) ([4]; 1200 nM in PBS)	Absorbance (617 nm) ([4]; 4000 nM in PBS)
CN(C)c1ccc(C(=N)c2ccc(N(C)C)cc2)cc1.Cl [Auramine O]	decline in the absorption intensity	shift toward longer wavelengths	manifests its fluorescent ability															
CN(C)c1ccc(C(=C2C=CC(=[N+](C)C)C=C2)c2ccccc2)cc1 [Malachite Green]			fluorescent	6-7 nm	over 1,000 times	0.026 arbitrary, relative units	0.034 arbitrary, relative units	0.066 arbitrary, relative units	0.18 arbitrary, relative units	0.487 arbitrary, relative units	1.22 arbitrary, relative units	0	0	0.002	0.009	0.036	0.132	0.464
